≈ marks a conversion by molar mass, not a printed value.
Experiments:
[1] = Stability of cyclization product 29; type: physicochemical
Description: To a mixture of 28 (70 mg, 0.067 mmol, 1.0 eq) and anisole (0.1 mL) was added TFA (1.0 mL). the resulting mixture was stirred for 15 min at room temperature. The TFA was evaporated and coevaporated with CH2 Cl2 to dryness. The resulting residue was dried on vacuo for 2 h and triturated with ethyl ether to give a white solid. This white solid was dissolved in THF (1.5 mL). To this solution was added triethylamine (20 μL, 0.14 mmol, 2.0 eq). After stirring 10 min., the solvent was evaporated and the resulting residue was immediately purified by PTLC (silica gel, CH2 Cl2 : EtOAc: MeOH, 4:1:0.5) to give 40 mg (67%) of 29 as a white solid. This product was unstable with a tendency to form a bicycle by-product (t1/2 is about 1 day) and was used for the next step immediately. ^1 H NMR (300 MHz, CD3 Cl/D2 O vs TMS): δ1.62 (4H, m); 2.45 (2H, m); 2.76/2.78 (3H, s); 3.32 (1H, m); 3.70 (1H, m); 3.93 (4H, m); 5.17 (6H, m); 7.32 (20H, m) ppm. IR (NaCl, film): 3381, 3258, 2934, 1765, 1713, 1646, 1608, 1504, 1452, 1252, 1186, 1096, 1063 cm^-1. MS (ES+): Calcd. for (C45 H49 N9 O11 +H)=892.4. Found (M+H)=892.4; (M+H-108)=784.3.

[2] = test system: Staphylococcus aureus ATCC 29213; experiment: MIC, broth microdilution (NCCLS), S. aureus ATCC 29213; type: cell-based; details: ATCC29213, S. aureus ATCC 29213, reference strain, 35° C., 20 h, read-out: Minimal Inhibitory Concentration (MIC)
Description: (§1) Test compounds were assayed against Staphylococcus aureus FDA 209P by the 10 fold agar disc diffusion assay on BHI-plates at pH=7 and pH=9 in accordance with the procedure from the National Committee for Clinical Laboratory Standards 1989. Susceptibility testing. A panel of 16 bacteria was used to evaluate the antimicrobial activity of the compounds (Table 2). The MIC of each antimicrobial agent was determined using a microdilution method according to NCCLS standards^1. Serial twofold dilutions of antibiotics were prepared in Mueller-Hinton broth (Difco Laboratories, Detroit, Mich.). Bacteria were grown to early log phase at 35° C. (1 hours) in Mueller-Hinton broth and cultures were diluted to achieve a final inoculum of 5×10^5 CFU per ml. Microtiter plates were incubated at 35° C. for 20 h and then were read using a Thermomax microplate reader (Molecular Devices, Sunnyvale, Calif.) and a microtiter plate reading mirror. The MIC was defined as the lowest concentration of antibiotic which inhibited the development of visible growth at the end of the incubation period. The standard reference strains were Staphyloccocus aureus ATCC […], Enterococcus faecalis ATCC 29212, E. faecium ATCC 35667, Escherichia coli ATCC 25922, and Pseudomonas aeruginosa ATCC 27853. Imipenem and vancomycin were used as antibiotic controls and values for reference strains were in accordance with the NCCLS.
Staphylococcus ATCC Reference strain

[3] = test system: Staphylococcus aureus COL8A; experiment: MIC, broth microdilution (NCCLS), S. aureus COL8A; type: cell-based; details: 20 h, read-out: Minimal Inhibitory Concentration (MIC)
Description: as §1
(§2) Staphylococcus Methicillin
aureus COL8A susceptible, […]

[4] = test system: Staphylococcus aureus PC1; experiment: MIC, broth microdilution (NCCLS), S. aureus PC1; type: cell-based; details: S. aureus PC1, Type A βlactamase hyperproducer, 35° C., 20 h, read-out: Minimal Inhibitory Concentration (MIC)
Description: as §1
Staphylococcus Type A βlactamase
aureus PC1 hyperproducer

[5] = test system: Staphylococcus aureus sa ATCC 13709; experiment: MIC, broth microdilution (NCCLS), S. aureus sa ATCC 13709; type: cell-based; details: ATCC13709, S. aureus sa ATCC 13709, Smith strain, 35° C., 20 h, read-out: Minimal Inhibitory Concentration (MIC)
Description: as §1

[6] = test system: Staphylococcus aureus COL; experiment: MIC, broth microdilution (NCCLS), S. aureus COL; type: cell-based; details: S. aureus COL, methicillin resistant, β-lactamase negative, 35° C., 20 h, read-out: Minimal Inhibitory Concentration (MIC)
Description: as §1, §2
aureus COL resistant, β-

[7] = test system: Staphylococcus aureus 76; experiment: MIC, broth microdilution (NCCLS), S. aureus 76; type: cell-based; details: Staphylococcus aureus; S. aureus 76, methicillin resistant, β-lactamase positive; 35° C., 20 h; read-out: Minimal Inhibitory Concentration (MIC)
Description: as §1, §2

[8] = test system: Staphylococcus aureus ATCC 33593; experiment: MIC, broth microdilution (NCCLS), S. aureus ATCC 33593; type: cell-based; details: ATCC33593, S. aureus ATCC 33593, methicillin resistant, β-lactamase positive, 35° C., 20 h, read-out: Minimal Inhibitory Concentration (MIC)
Description: as §1
Staphylococcus ATCC Methicillin
aureus ATCC 33593 resistant, β-

[9] = test system: Staphylococcus aureus sa201; experiment: MIC, broth microdilution (NCCLS), S. aureus sa201; type: cell-based; details: S. aureus sa201, clinical isolate Spain, methicillin resistant, β-lactamase positive, 35° C., 20 h, read-out: Minimal Inhibitory Concentration (MIC)
Description: as §1
Staphylococcus Clinical isolate,
aureus sa201 Spain resistant, β-

[10] = test system: Staphylococcus haemolyticus UA281; experiment: MIC, broth microdilution (NCCLS), S. haemolyticus UA281; type: cell-based; details: S. haemolyticus UA281, methicillin resistant, 35° C., 20 h, read-out: Minimal Inhibitory Concentration (MIC)
Description: as §1, §2
haemolyticus UA281 resistant

[11] = test system: Enterococcus faecalis ATCC 29212; experiment: MIC, broth microdilution (NCCLS), E. faecalis ATCC 29212; type: cell-based; details: ATCC29212, E. faecalis ATCC 29212, reference strain, 35° C., 20 h, read-out: Minimal Inhibitory Concentration (MIC)
Description: as §1
(§3) Enterococcus ATCC Reference strain

[12] = test system: Enterococcus faecium ATCC 35667; experiment: MIC, broth microdilution (NCCLS), E. faecium ATCC 35667; type: cell-based; details: ATCC35667, E. faecium ATCC 35667, reference strain, 35° C., 20 h, read-out: Minimal Inhibitory Concentration (MIC)
Description: as §1, §3

[13] = test system: Enterococcus faecium BM4147; experiment: MIC, broth microdilution (NCCLS), E. faecium BM4147; type: cell-based; details: E. faecium BM4147, vancomycin resistant, vanA, 35° C., 20 h, read-out: Minimal Inhibitory Concentration (MIC)
Description: as §1
(§4) Enterococcus Vancomycin
faecium BM4147 resistant, vanA

[14] = test system: Enterococcus faecium efm040; experiment: MIC, broth microdilution (NCCLS), E. faecium efm040; type: cell-based; details: E. faecium efm040, clinical isolate U.S.A., ampicillin resistant, 35° C., 20 h, read-out: Minimal Inhibitory Concentration (MIC)
Description: as §1
Enterococcus Clinical isolate,
faecium efm040 U.S.A. resistant

[15] = test system: Escherichia coli ATCC 25922; experiment: MIC, broth microdilution (NCCLS), E. coli ATCC 25922; type: cell-based; details: ATCC25922, E. coli ATCC 25922, reference strain, 35° C., 20 h, read-out: Minimal Inhibitory Concentration (MIC)
Description: as §1

[16] = test system: Pseudomonas Aeruginosa ATCC 27853; experiment: MIC, broth microdilution (NCCLS), P. aeruginosa ATCC 27853; type: cell-based; details: ATCC27853, P. aeruginosa ATCC 27853, reference strain, 35° C., 20 h, read-out: Minimal Inhibitory Concentration (MIC)
Description: as §1

[17] = test system: Enterococcus faecalis V583; experiment: MIC, broth microdilution (NCCLS), E. faecalis V583; type: cell-based; details: E. faecalis V583, vancomycin resistant, vanB, 35° C., 20 h, read-out: Minimal Inhibitory Concentration (MIC)
Description: as §1, §4
faecalis V583 resistant, vanB

Structure (SMILES) | t1/2 (tendency to form a bicycle by-product) [1] | MIC [2] [µg/mL] | MIC [3] [µg/mL] | MIC [4] [µg/mL] | MIC [5] [µg/mL] | MIC [6] [µg/mL] | MIC [7] [µg/mL] | MIC [8] [µg/mL] | MIC [9] [µg/mL] | MIC [10] [µg/mL] | MIC [11] [µg/mL] | MIC [12] [µg/mL] | MIC [13] [µg/mL] | MIC [14] [µg/mL] | MIC [15] [µg/mL] | MIC [16] [µg/mL] | MIC [17] [µg/mL]
CN(C(=O)C[C@H](CCCN(C(=N)NC(=O)OCc1ccccc1)C(=O)OCc1ccccc1)NC(=O)OCc1ccccc1)C1CNC(NC(=O)NC(=O)OCc2ccccc2)=NC1=O (stereo partly drawn) [Compound 29] | about 1 day |  |  |  |  |  |  |  |  |  |  |  |  |  |  |  | 
CC(=O)NC1=NC(=O)C(N(C)C(=O)C[C@@H](N)CCCNC(=N)N)CN1 (stereo partly drawn) [Compound 73a, 3S,5'S/R-3-amino-6-[(aminoiminomethyl)amino]-N-(2-acetylamino-1,4,5,6-tetrahydro-4-oxo-5-pyrimidinyl)-N-methyl-hexanamide] |  | 16 (≈ 45.1 µM) | 16 (≈ 45.1 µM) | 8 (≈ 22.6 µM) | 16 (≈ 45.1 µM) | 16 (≈ 45.1 µM) | 16 (≈ 45.1 µM) | 8 (≈ 22.6 µM) | 16 (≈ 45.1 µM) | 128 (≈ 361 µM) | 32 (≈ 90.3 µM) | 64 (≈ 181 µM) | 128 (≈ 361 µM) | 256 (≈ 722 µM) | 128 (≈ 361 µM) | 256 (≈ 722 µM) | 
COC(=O)NC1=NC(=O)C(N(C)C(=O)C[C@@H](N)CCCNC(=N)N)CN1 (stereo partly drawn) [Compound 73c, 3S,5'S/R-3-amino-6-[(aminoiminomethyl)amino]-N-(2-methoxycarbonylamino-1,4,5,6-tetrahydro-4-oxo-5-pyrimidinyl)-N-methyl-hexanamide] |  | 64 (≈ 173 µM) | 64 (≈ 173 µM) | 32 (≈ 86.4 µM) | 32 (≈ 86.4 µM) | 64 (≈ 173 µM) | 64 (≈ 173 µM) | 64 (≈ 173 µM) | 64 (≈ 173 µM) | 256 (≈ 691 µM) | 64 (≈ 173 µM) | 128 (≈ 346 µM) | 64 (≈ 173 µM) | > 256 | > 256 | > 256 | 64 (≈ 173 µM)
C[C@@H](O)[C@H]1C(=O)N2C(C(=O)O)=C(SCCN=CN)C[C@H]12 [Imipenem] |  | ≤ 0.25 | ≤ 0.25 | ≤ 0.25 | ≤ 0.25 | 32 (≈ 107 µM) | 8 (≈ 26.7 µM) | 8 (≈ 26.7 µM) | 64 (≈ 214 µM) | 64 (≈ 214 µM) | 0.5 (≈ 1.67 µM) | 4 (≈ 13.4 µM) | 8 (≈ 26.7 µM) | > 128 | ≤ 0.25 | 1 (≈ 3.34 µM) | 0.5 (≈ 1.67 µM)

— US6162925A, “Antibiotic for methicillin resistant bacteria” (Research Corporation Tech., Inc., priority 1999, dated 2000)
